Test results: patent publication US20200199230A1, “TREATMENT METHOD” (Hoffmann-La Roche Inc., priority 2017, published 2020)

What was measured:
[1] = test system: tumor inflammation-related adverse effects; details: preliminary data; confirmed PR and SD observed in patients given prophylaxis
[2] = test system: advanced CEA positive solid tumors; format: in vivo, human
Description: In S1, 80 patients (70 CRC) were treated at dose levels of 0.05-600 mg; in S2, 45 patients (35 CRC) at 5-160 mg (data cut-off 3 Mar. 2017). In addition biomarker analysis and PK assays were conducted.

[3] = parameters: species or system human; details: in vivo
Description: (§1) Methods: In 2 ongoing dose-escalation phase I studies, CEA-TCB is given as monotherapy IV QW (S1) or in combination (QW) with atezolizumab 1200 mg Q3W (S2) in patients with advanced CEA positive (≥20% of tumor cells expressing moderate or high) solid tumors. In S1, 80 patients (70 CRC) were treated at dose levels of 0.05-600 mg; in S2, 45 patients (35 CRC) at 5-160 mg (data cut-off 3 Mar. 2017). In addition biomarker analysis and PK assays were conducted.

intratumoral T cells = assay: Biomarker analysis of on-treatment tumor biopsies; format: in vivo, human
Description: as §1

IL-6 = assay: Biomarker analysis: IL-6 after administration; format: in vivo, human; details: most patients; after the first administration
Description: as §1

tumor cells = details: preclinically; increased intratumoral T-cell infiltration and activation, T-cell-mediated tumor cell killing, PD-L1/PD-1 upregulation; cited from earlier work

## C[C@]12C=CC(=O)C=C1CC[C@@H]1[C@@H]2C(=O)C[C@@]2(C)[C@H]1CC[C@]2(O)C(=O)CO [prednisone]
[1]
  effect of prophylactic steroid doses on anti-tumor activity of CEA-TCB monotherapy or combination with atezolizumab: did not impair the anti-tumor activity

## CEA-TCB: novel T-cell bispecific antibody targeting CEA on tumor cells and CD3 on T cells; polypeptides of SEQ ID NO: 25-28
[2]; S1 monotherapy, doses ≥60 mg, MSS CRC patients, 4 patients
  tumor reduction of −10% to −30% (stable disease), share of patients: 13%
[2]; S1 monotherapy, doses ≥60 mg, two of 31 evaluable CRC patients, both MSS
  confirmed partial response (PR; RECIST v1.1), share of CRC patients: 6%
[2]; S1 monotherapy, weeks 4-6, 9 patients
  metabolic PR (FDG PET; EORTC criteria), share of CRC patients: 29%
[2]; human, in vivo, iv
  MTD (maximum tolerated dose): < 600 mg
[2]; in vivo
  patients with dose limiting toxicities (DLTs): Five
  related adverse event: diarrhea: 40%
  related adverse event: infusion-related reactions (IRRs): 55%
  related adverse event: pyrexia: 58%
[2]; monotherapy, during dose escalation
  antitumor activity in advanced CRC: Evidence of antitumor activity
[3]; human
  effect of ADA on drug clearance: ADA increase CEA-TCB drug clearance
[3]
  PK linearity: almost linear PK
Intratumoral T cells; S1, doses ≥60 mg, OT biopsies, P=0.035, without dose-dependence
  increase in Ki67+ T cells as compared to baseline: 3.6 fold
Intratumoral T cells; on-treatment
  intratumoral CD8 T cells: On-treatment increases
IL-6
  IL-6 change: increases in IL-6
Tumor cells
  preclinical antitumor activity: potent antitumor activity
